Source: the supplement of paper PMC10307832

Legend:
Experiment in all cases: relative viability (nuclei count vs DMSO), 5 days (fraction); higher = more cells survive
Ispinesib + Tozasertib = compound: Cc1ccc(C(=O)N(CCCN)[C@@H](c2nc3cc(Cl)ccc3c(=O)n2Cc2ccccc2)C(C)C)cc1 [Ispinesib] + Cc1cc(Nc2cc(N3CCN(C)CC3)nc(Sc3ccc(NC(=O)C4CC4)cc3)n2)n[nH]1 [Tozasertib] (partner 0.1 µM)
Outline: (§1)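 The day after seeding in 1536-well plates, lung cancer cell lines were treated by pin tool with a single drug, or with a fixed anchor-drug dose together with five library-drug doses (not always all listed) in √10 steps. After 5 days, a combined fix-and-stain solution (final 0.05% Triton X-100, 1% formaldehyde, 1 ug/ml Hoechst) was added. Nuclei counted on 4× images gave relative viability as treated counts over vehicle counts, reported as the median of duplicate plates.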

Linsitinib + Decitabine = compound: C[C@]1(O)C[C@@H](c2nc(-c3ccc4ccc(-c5ccccc5)nc4c3)c3c(N)nccn32)C1 [Linsitinib] + Nc1ncn([C@H]2C[C@H](O)[C@@H](CO)O2)c(=O)n1 [Decitabine] (partner 2 µM)
Outline: as §1

Ispinesib + Trametinib = compound: Cc1ccc(C(=O)N(CCCN)[C@@H](c2nc3cc(Cl)ccc3c(=O)n2Cc2ccccc2)C(C)C)cc1 [Ispinesib] + CC(=O)Nc1cccc(-n2c(=O)n(C3CC3)c(=O)c3c(Nc4ccc(I)cc4F)n(C)c(=O)c(C)c32)c1 [Trametinib] (partner 0.02 µM)
Outline: as §1

Ispinesib + Lapatinib = compound: Cc1ccc(C(=O)N(CCCN)[C@@H](c2nc3cc(Cl)ccc3c(=O)n2Cc2ccccc2)C(C)C)cc1 [Ispinesib] + CS(=O)(=O)CCNCc1ccc(-c2ccc3ncnc(Nc4ccc(OCc5cccc(F)c5)c(Cl)c4)c3c2)o1 [Lapatinib] (partner 2 µM)
Outline: as §1

Row | Cell Line | relative viability (Ispinesib + Tozasertib; first compound 0.001 µM) | relative viability (Ispinesib + Tozasertib; first compound 0.003162 µM) | relative viability (Ispinesib + Tozasertib; first compound 0.01 µM) | relative viability (Ispinesib + Tozasertib; first compound 0.03162 µM) | relative viability (Ispinesib + Tozasertib; first compound 0.1 µM) | relative viability (Linsitinib + Decitabine; first compound 0.01 µM) | relative viability (Linsitinib + Decitabine; first compound 0.03162 µM) | relative viability (Linsitinib + Decitabine; first compound 0.1 µM) | relative viability (Linsitinib + Decitabine; first compound 0.3162 µM) | relative viability (Linsitinib + Decitabine; first compound 1 µM) | relative viability (Ispinesib + Trametinib; first compound 0.001 µM) | relative viability (Ispinesib + Trametinib; first compound 0.003162 µM) | relative viability (Ispinesib + Trametinib; first compound 0.01 µM) | relative viability (Ispinesib + Trametinib; first compound 0.03162 µM) | relative viability (Ispinesib + Trametinib; first compound 0.1 µM) | relative viability (Ispinesib + Lapatinib; first compound 0.001 µM) | relative viability (Ispinesib + Lapatinib; first compound 0.003162 µM) | relative viability (Ispinesib + Lapatinib; first compound 0.01 µM) | relative viability (Ispinesib + Lapatinib; first compound 0.03162 µM) | relative viability (Ispinesib + Lapatinib; first compound 0.1 µM)
1 | NCI-H441 | 0.681 | 0.603 | 0.673 | 0.258 | 0.341 | 0.246 | 0.26 | 0.223 | 0.212 | 0.257 | 0.47 | 0.458 | 0.284 | 0.255 | 0.212 | – | – | – | – | –
2 | NCI-H520 | 0.419 | 0.466 | 0.41 | 0.499 | 0.422 | 0.456 | 0.59 | 0.501 | – | 0.555 | 0.775 | 0.663 | 0.557 | 0.229 | 0.221 | 0.996 | 0.825 | 0.322 | 0.217 | 0.261
3 | CAL-12T | 0.244 | 0.361 | 0.296 | 0.213 | 0.222 | – | – | – | – | – | 0.353 | 0.315 | 0.28 | 0.294 | 0.215 | 0.625 | 0.692 | 0.742 | 0.488 | 0.235
4 | HCC-827 | 0.43 | 0.534 | 0.43 | 0.446 | 0.372 | 0.165 | 0.427 | 0.287 | – | 0.34 | 0.595 | 0.516 | 0.542 | 0.57 | 0.59 | 0.194 | 0.194 | 0.181 | 0.189 | 0.0607
5 | LC-2-ad | 0.42 | 0.52 | 0.384 | 0.322 | 0.241 | 0.776 | 0.719 | 0.864 | 0.726 | 0.742 | 0.934 | 0.944 | 0.92 | 0.9 | 0.474 | 0.949 | 1.02 | 1.07 | 0.504 | 0.114
6 | NCI-H2170 | 0.741 | 0.689 | 0.848 | 0.556 | 0.41 | 0.445 | 0.528 | 0.461 | – | 0.468 | 1.02 | 0.933 | 1.09 | 0.684 | 0.488 | 0.265 | 0.252 | 0.269 | 0.182 | 0.214
7 | SW 1573 | 0.18 | 0.19 | 0.174 | 0.194 | 0.131 | 0.648 | 0.589 | 0.447 | 0.472 | 0.348 | 0.614 | 0.547 | 0.516 | 0.158 | 0.144 | 1.22 | 1.16 | 1.3 | 1.25 | 0.238
8 | SK-MES-1 | 0.983 | 1.03 | 0.949 | 0.217 | 0.215 | 0.39 | 0.369 | 0.387 | 0.418 | 0.423 | 0.586 | 0.533 | 0.583 | 0.21 | 0.195 | 0.534 | 0.506 | 0.54 | 0.5 | 0.168
9 | SW 900 | 0.502 | 0.595 | 0.606 | 0.409 | 0.293 | 0.474 | 0.537 | 0.466 | 0.374 | 0.388 | 0.914 | 0.947 | 1.02 | 0.924 | 0.326 | – | – | – | – | –
10 | NCI-H1793 | 0.322 | 0.345 | 0.724 | 0.288 | 0.368 | 0.428 | 0.634 | 0.547 | 0.422 | 0.454 | 0.47 | 0.433 | 0.412 | 0.421 | 0.244 | 0.655 | 0.84 | 0.909 | 0.377 | 0.238
11 | NCI-H1299 | – | – | – | – | – | – | – | – | – | – | – | – | – | – | – | 1.02 | 0.988 | 0.979 | 0.813 | 0.3
12 | LCLC-97TM1 | 0.196 | 0.143 | 0.215 | 0.173 | 0.191 | 0.251 | 0.261 | 0.24 | 0.204 | 0.245 | 0.219 | 0.238 | 0.219 | 0.169 | 0.137 | 0.998 | 1.18 | 0.858 | 0.673 | 0.112
13 | NCI-H1915 | 0.444 | 0.528 | 0.498 | 0.462 | 0.315 | 0.272 | 0.312 | 0.266 | 0.247 | 0.263 | 0.29 | 0.323 | 0.314 | 0.279 | 0.22 | 0.958 | 1.06 | 1 | 0.363 | 0.139
14 | NCI-H661 | 0.355 | 0.396 | 0.384 | 0.379 | 0.369 | 0.545 | 0.676 | 0.536 | 0.492 | 0.535 | 0.625 | 0.616 | 0.567 | 0.274 | 0.277 | 0.52 | 0.451 | 0.444 | 0.406 | 0.439
15 | NCI-H2405 | 0.798 | 0.7 | 0.858 | 0.771 | 0.965 | 0.709 | 0.813 | 0.713 | 0.686 | 0.588 | 0.708 | 0.632 | 0.525 | 0.566 | 0.478 | 1.08 | 1.12 | 1.18 | 0.918 | 0.308
